# Target: T1, PIP4K2C (Homo sapiens, UniProt Q8TBX8)
# T1 sequence (Q8TBX8 1-421): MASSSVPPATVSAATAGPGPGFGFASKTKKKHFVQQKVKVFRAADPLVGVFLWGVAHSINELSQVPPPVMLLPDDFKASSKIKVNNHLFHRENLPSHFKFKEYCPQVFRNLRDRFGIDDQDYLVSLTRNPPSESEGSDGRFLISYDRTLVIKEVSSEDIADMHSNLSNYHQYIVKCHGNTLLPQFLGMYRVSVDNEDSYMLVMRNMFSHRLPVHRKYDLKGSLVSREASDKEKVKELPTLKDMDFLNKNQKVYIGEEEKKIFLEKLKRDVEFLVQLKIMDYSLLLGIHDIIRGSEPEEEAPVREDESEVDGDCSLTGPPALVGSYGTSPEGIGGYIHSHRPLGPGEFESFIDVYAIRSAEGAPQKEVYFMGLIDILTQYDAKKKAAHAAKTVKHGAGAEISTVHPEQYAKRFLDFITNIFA
# Assay: Enzyme Binding Assay (KINOMEscan): active site-directed competition binding to an immobilized ligand
# Parameters: purchased Eurofins DiscoverX, San Diego, CA 87-0007-1094
# Settings: 11-point dose response, duplicate, top concentration 5 micromolar; read-out: Pip4k2c Kd: IC50
# Procedure, shortened: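 Active site-directed competition binding against an immobilized ligand. 11-point dose-response in duplicate, top concentration 5 micromolar; IC50 from a Hill equation fitted by the Levenberg-Marquardt algorithm.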
row,SMILES,IC50
1,"CC(=O)N1CCC(Nc2ncc(F)c(N3CCCC(c4ccc[nH]c4=O)C3)n2)CC1 (centres unmarked) [Compound 196, 3-[1-[2-[(1-acetyl-4-piperidyl)amino]-5-fluoro-pyrimidin-4-yl]-3-piperidyl]-1H-pyridin-2-one]",< 0.5 µM
2,"CC(=O)N[C@H]1CC[C@H](Nc2ncc(F)c(N3CCC[C@@H](C(=O)NC4CC4)C3)n2)CC1 [Compound 197, trans-(R)-1-(2-((4-acetamidocyclohexyl)amino)-5-fluoropyrimidin-4-yl)-N-cyclopropylpiperidine-3-carboxamide]",1 to 5 µM
3,"CC(=O)N[C@H]1CC[C@H](Nc2ncc(F)c(N3CCC[C@H](C(=O)NC4CC4)C3)n2)CC1 [Compound 198, trans-(S)-1-(2-((4-acetamidocyclohexyl)amino)-5-fluoropyrimidin-4-yl)-N-cyclopropylpiperidine-3-carboxamide]",1 to 5 µM
4,"CC(=O)N1CCC(Nc2ncc(F)c(N3CCCC(c4ccc(=O)[nH]c4)C3)n2)CC1 (centres unmarked) [Compound 199, 5-(1-(2-((1-acetylpiperidin-4-yl)amino)-5-fluoropyrimidin-4-yl)piperidin-3-yl)pyridin-2(1H)-one]",0.5 to 1 µM
5,"CC(=O)N1CCC(Nc2ncc(F)c(-c3cccc(-c4ccc(=O)[nH]c4)c3)n2)CC1 [Compound 202, 5-(3-(2-((1-acetylpiperidin-4-yl)amino)-5-fluoropyrimidin-4-yl)phenyl)pyridin-2(1H)-one]",< 0.5 µM
6,"CC(=O)N[C@H]1CC[C@H](Nc2ncc(F)c(-c3cccc(-c4ccc(=O)[nH]c4)c3)n2)CC1 [Compound 203, trans-N-(4-((5-fluoro-4-(3-(6-oxo-1,6-dihydropyridin-3-yl)phenyl)pyrimidin-2-yl)amino)cyclohexyl)acetamide]",< 0.5 µM
7,"NC(=O)[C@@H]1CCC[C@H](Nc2ncc(F)c(-c3cccc(-c4ccc[nH]c4=O)c3)n2)C1 [Compound 204, (1R,3S)-3-((5-fluoro-4-(3-(2-oxo-1,2-dihydropyridin-3-yl)phenyl)pyrimidin-2-yl)amino)cyclohexane-1-carboxamide]",< 0.5 µM
8,"CC(=O)N1CCC(Nc2ncc(F)c(N3CCOCC3)n2)CC1 [Compound 205, 1-(4-((5-fluoro-4-morpholinopyrimidin-2-yl)amino)piperidin-1-yl)ethan-1-one]",0.5 to 1 µM
9,"CC(=O)N1CCC(Nc2ncc(F)c(-c3cccc(N4CCOCC4=O)c3)n2)CC1 [Compound 206, 4-(3-(2-((1-acetylpiperidin-4-yl)amino)-5-fluoropyrimidin-4-yl)phenyl)morpholin-3-one]",< 0.5 µM
10,"Cc1ccc(=O)n(-c2cccc(-c3nc(N[C@H]4CCC[C@@H](C(N)=O)C4)ncc3F)c2)c1 [Compound 207, (1R,3S)-3-((5-fluoro-4-(3-(5-methyl-2-oxopyridin-1 (2H)-yl)phenyl)pyrimidin-2-yl)amino)cyclohexane-1-carboxamide]",< 0.5 µM
11,"NC(=O)[C@@H]1CCC[C@H](Nc2ncc(F)c(-c3cccc(-n4cc(C(F)(F)F)ccc4=O)c3)n2)C1 [Compound 208, (1R,3S)-3-((5-fluoro-4-(3-(2-oxo-5-(trifluoromethyl)pyridin-1 (2H)-yl)phenyl)pyrimidin-2-yl)amino)cyclohexane-1-carboxamide]",< 0.5 µM
12,"CC(=O)N1CCC(Nc2ncc(F)c(-c3cccc(N4CCC[C@@H](O)C4)c3)n2)CC1 [Compound 209, (R)-1-(4-((5-fluoro-4-(3-(3-hydroxypiperidin-1-yl)phenyl)pyrimidin-2-yl)amino)piperidin-1-yl)ethan-1-one]",< 0.5 µM
13,"CC(=O)N1CCC(Nc2ncc(F)c(-c3cccc(N4CCC[C@H](O)C4)c3)n2)CC1 [Compound 210, (S)-1-(4-((5-fluoro-4-(3-(3-hydroxypiperidin-1-yl)phenyl)pyrimidin-2-yl)amino)piperidin-1-yl)ethan-1-one]",< 0.5 µM
14,"CC(=O)N1CCC(Nc2ncc(F)c(-c3cccc(N4CCC(O)CC4)c3)n2)CC1 [Compound 211, 1-(4-((5-fluoro-4-(3-(4-hydroxypiperidin-1-yl)phenyl)pyrimidin-2-yl)amino)piperidin-1-yl)ethan-1-one]",< 0.5 µM
15,"CC(=O)N1CCC(Nc2ncc(F)c(-c3cccc(C(=O)N4CC[C@H](O)C4)c3)n2)CC1 [Compound 212, (S)-1-(4-((5-fluoro-4-(3-(3-hydroxypyrrolidine-1-carbonyl)phenyl)pyrimidin-2-yl)amino)piperidin-1-yl)ethan-1-one]",< 0.5 µM
16,"CC(=O)N1CCC(Nc2ncc(F)c(-c3cccc(C(=O)N4CC[C@@H](O)C4)c3)n2)CC1 [Compound 213, (R)-1-(4-((5-fluoro-4-(3-(3-hydroxypyrrolidine-1-carbonyl)phenyl)pyrimidin-2-yl)amino)piperidin-1-yl)ethan-1-one]",< 0.5 µM

row,SMILES,IC50
1,"CC(=O)N1CCC(Nc2ncc(F)c(-c3cccc(C(=O)N4CC(O)C4)c3)n2)CC1 [Compound 214, 1-(4-((5-fluoro-4-(3-(3-hydroxyazetidine-1-carbonyl)phenyl)pyrimidin-2-yl)amino)piperidin-1-yl)ethan-1-one]",< 0.5 µM
2,"CC(=O)N1CCC(Nc2ncc(F)c(N3CCC[C@H](C(=O)N4CC[C@H](O)C4)C3)n2)CC1 [Compound 215, 1-(4-((5-fluoro-4-((S)-3-((S)-3-hydroxypyrrolidine-1-carbonyl)piperidin-1-yl)pyrimidin-2-yl)amino)piperidin-1-yl)ethan-1-one]",1 to 5 µM
3,"CC(=O)N1CCC(Nc2ncc(F)c(N3CCC[C@H](C(=O)N4CC[C@@H](O)C4)C3)n2)CC1 [Compound 216, 1-(4-((5-fluoro-4-((S)-3-((R)-3-hydroxypyrrolidine-1-carbonyl)piperidin-1-yl)pyrimidin-2-yl)amino)piperidin-1-yl)ethan-1-one]",0.5 to 1 µM
4,"CC(=O)N1CCC(Nc2ncc(F)c(-c3cccc(C(=O)N4CCC(O)(CO)CC4)c3)n2)CC1 [Compound 217, 1-[4-[[5-fluoro-4-[3-[4-hydroxy-4-(hydroxymethyl)piperidine-1-carbonyl]phenyl]pyrimidin-2-yl]amino]-1-piperidyl]ethanone]",< 0.5 µM
5,"CC(=O)N1CCC(Nc2ncc(F)c(-c3cccc(C(=O)N4CCC(O)(CN)CC4)c3)n2)CC1 [Compound 218, 1-(4-((4-(3-(4-(aminomethyl)-4-hydroxypiperidine-1-carbonyl)phenyl)-5-fluoropyrimidin-2-yl)amino)piperidin-1-yl)ethan-1-one]",< 0.5 µM
6,"CC(=O)N1CCC(Nc2ncc(F)c(-n3cc(C4CC4)cn3)n2)CC1 [Compound 219, 1-(4-((4-(4-cyclopropyl-1H-pyrazol-1-yl)-5-fluoropyrimidin-2-yl)amino)piperidin-1-yl)ethan-1-one]",< 0.5 µM
7,"CC(=O)N1CCC(Nc2ncc(F)c(-c3cccc(N4CCCOC4=O)c3)n2)CC1 [Compound 220, 3-[3-[2-[(1-acetyl-4-piperidyl)amino]-5-fluoro-pyrimidin-4-yl]phenyl]-1,3-oxazinan-2-one]",< 0.5 µM
8,"CC(=O)N1CCC(Nc2ncc(F)c(-c3cccc(N4CCCCC4=O)c3)n2)CC1 [Compound 221, 1-(3-(2-((1-acetylpiperidin-4-yl)amino)-5-fluoropyrimidin-4-yl)phenyl)piperidin-2-one]",< 0.5 µM
9,"CC(=O)N1CCC(Nc2ncc(F)c(-c3cccc(N4CCCC4=O)c3)n2)CC1 [Compound 222, 1-[3-[2-[(1-acetyl-4-piperidyl)amino]-5-fluoro-pyrimidin-4-yl]phenyl]pyrrolidin-2-one]",< 0.5 µM
10,"NC(=O)[C@@H]1CC[C@H](Nc2ncc(F)c(-c3cccc(-c4ccc[nH]c4=O)c3)n2)C1 [Compound 223, (1R,3S)-3-((5-fluoro-4-(3-(2-oxo-1,2-dihydropyridin-3-yl)phenyl)pyrimidin-2-yl)amino)cyclopentane-1-carboxamide]",< 0.5 µM
11,"CC(=O)N1CCC(Nc2ncc(F)c(N3CCCC(c4cc[nH]c(=O)c4)C3)n2)CC1 (centres unmarked) [Compound 224, 4-(1-(2-((1-acetylpiperidin-4-yl)amino)-5-fluoropyrimidin-4-yl)piperidin-3-yl)pyridin-2(1H)-one]",0.5 to 1 µM
12,"CC(=O)N[C@H]1CC[C@H](Nc2ncc(F)c(-c3cccc(N4CCCOC4=O)c3)n2)CC1 [Compound 225, trans-N-(4-((5-fluoro-4-(3-(2-oxo-1,3-oxazinan-3-yl)phenyl)pyrimidin-2-yl)amino)cyclohexyl)acetamide]",< 0.5 µM
13,"CC(=O)N1CCC(Nc2ncc(F)c(-c3cccc(N4CCOC4=O)c3)n2)CC1 [Compound 226, 3-(3-(2-((1-acetylpiperidin-4-yl)amino)-5-fluoropyrimidin-4-yl)phenyl)oxazolidin-2-one]",< 0.5 µM
14,"CC(=O)N1CCC(Nc2ncc(F)c(-c3cccc(N4CCC(O)C4=O)c3)n2)CC1 (centres unmarked) [Compound 228, 1-(3-(2-((1-acetylpiperidin-4-yl)amino)-5-fluoropyrimidin-4-yl)phenyl)-3-hydroxypyrrolidin-2-one]",< 0.5 µM
15,"NC(=O)[C@H]1CC[C@H](Nc2ncc(F)c(-c3cccc(-c4ccc(=O)[nH]c4)c3)n2)CC1 [Compound 229, trans-4-((5-fluoro-4-(3-(6-oxo-1,6-dihydropyridin-3-yl)phenyl)pyrimidin-2-yl)amino)cyclohexane-1-carboxamide]",< 0.5 µM
16,"CC(=O)N1CCC(Nc2ncc(F)c(-c3cccc(N4C[C@@H](O)CC4=O)c3)n2)CC1 [Compound 230, (4S)-1-[3-[2-[(1-acetyl-4-piperidyl)amino]-5-fluoro-pyrimidin-4-yl]phenyl]-4-hydroxy-pyrrolidin-2-one]",< 0.5 µM

# From patent publication US20260355196A1, “INHIBITORS AND DEGRADERS OF PIP4K PROTEIN” (Larkspur Biosciences, Inc., priority 2023, published 2026)
